Results reported in PubChem BioAssay AID2060483 (Molecular Pharmacology Branch, DTP, NCI, 2025).

System: K24384-001-R-PDC complex spheroids, viability
Experiment: Anticancer human tumor K24384-001-R-PDC patient-derived pancreatic adenocarcinoma cell line growth inhibition [GQUAD]
Conditions: for IC50: curve of first compound; for viability, T/C: stronger effect = lower value
Summary of the method: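 Multi-cell-type spheroids of tumor cells with HUVEC and mesenchymal stem cells, treated with drug combinations. Concentrations descend in half-log steps from near clinical Cmax, or from 10 microM where Cmax is unknown; viability read-out.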

[1] = second compound 0.0316 µM, first compound 0.0316 µM
[2] = second compound 0.0316 µM, first compound 0.316 µM
[3] = second compound 0.1 µM, first compound 0.0316 µM
[4] = second compound 0.1 µM, first compound 0.316 µM
[5] = second compound 0.316 µM, first compound 0.0316 µM
[6] = second compound 0.316 µM, first compound 0.316 µM
[7] = second compound 1 µM, first compound 0.0316 µM
[8] = second compound 1 µM, first compound 0.316 µM
[9] = second compound 3.16 µM, first compound 0.0316 µM
[10] = second compound 3.16 µM, first compound 0.316 µM
[11] = second compound 10 µM, first compound 0.0316 µM
[12] = second compound 10 µM, first compound 0.316 µM
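Further: spheroids exposed to compounds for seven days.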

For CCc1c2c(nc3ccc(O)cc13)-c1cc3c(c(=O)n1C2)COC(=O)[C@]3(O)CC + Cc1cnc(CNC(=O)c2c(=O)c3ccc(N4CCCN(C)CC4)nc3n3c2sc2ccccc23)cn1, the IC50 (second compound 0.0316 µM) was 9.23 nM, the IC50 (second compound 0.1 µM) was 8.3 nM and the IC50 (second compound 0.316 µM) was < 0.999 nM. For the same compound, the IC50 (second compound 1 µM) was < 0.999 nM, the IC50 (second compound 3.16 µM) was < 0.999 nM and the IC50 (second compound 10 µM) was < 0.999 nM. The viability, T/C (second compound 0.0316 µM, first compound 0.000999 µM) was 73.2%, the viability, T/C (second compound 0.0316 µM, first compound 0.00316 µM) was 60.8% and the viability, T/C (second compound 0.0316 µM, first compound 0.00999 µM) was 53.2%. For the same compound, the viability, T/C [1] was 29.8%, the viability, T/C (second compound 0.0316 µM, first compound 0.0999 µM) was 31.9% and the viability, T/C [2] was 18%. It also gave a viability, T/C (second compound 0.1 µM, first compound 0.000999 µM) of 50%, a viability, T/C (second compound 0.1 µM, first compound 0.00316 µM) of 64.9% and a viability, T/C (second compound 0.1 µM, first compound 0.00999 µM) of 45.7%. The viability, T/C [3] was 36.7%, the viability, T/C (second compound 0.1 µM, first compound 0.0999 µM) was 29.3% and the viability, T/C [4] was 16.1%. The viability, T/C (second compound 0.316 µM, first compound 0.000999 µM) was 41.4%, the viability, T/C (second compound 0.316 µM, first compound 0.00316 µM) was 58.4% and the viability, T/C (second compound 0.316 µM, first compound 0.00999 µM) was 38.2%. The viability, T/C [5] was 34.8%, the viability, T/C (second compound 0.316 µM, first compound 0.0999 µM) was 19.9% and the viability, T/C [6] was 14%. It also gave a viability, T/C (second compound 1 µM, first compound 0.000999 µM) of 38.8%, a viability, T/C (second compound 1 µM, first compound 0.00316 µM) of 41.4% and a viability, T/C (second compound 1 µM, first compound 0.00999 µM) of 31.3%. It also gave a viability, T/C [7] of 23.8%, a viability, T/C (second compound 1 µM, first compound 0.0999 µM) of 18.4% and a viability, T/C [8] of 6.84%. It also gave a viability, T/C (second compound 3.16 µM, first compound 0.000999 µM) of 37.4%, a viability, T/C (second compound 3.16 µM, first compound 0.00316 µM) of 43.7% and a viability, T/C (second compound 3.16 µM, first compound 0.00999 µM) of 28.8%. For the same compound, the viability, T/C [9] was 20.1%, the viability, T/C (second compound 3.16 µM, first compound 0.0999 µM) was 8.56% and the viability, T/C [10] was 0.57%. For the same compound, the viability, T/C (second compound 10 µM, first compound 0.000999 µM) was 29.2%, the viability, T/C (second compound 10 µM, first compound 0.00316 µM) was 14.6% and the viability, T/C (second compound 10 µM, first compound 0.00999 µM) was 13.3%. For the same compound, the viability, T/C [11] was 0.4%, the viability, T/C (second compound 10 µM, first compound 0.0999 µM) was 0.25% and the viability, T/C [12] was 0.2%.

For COc1cc(C2c3cc4c(cc3C(OC3OC5COC(C)OC5C(O)C3O)C3COC(=O)C23)OCO4)cc(OC)c1O (centres undefined) + Cc1cnc(CNC(=O)c2c(=O)c3ccc(N4CCCN(C)CC4)nc3n3c2sc2ccccc23)cn1, the IC50 (second compound 0.0316 µM) was 865 nM, the IC50 (second compound 0.1 µM) was 2380 nM and the IC50 (second compound 0.316 µM) was 31.6 nM. For the same compound, the IC50 (second compound 1 µM) was < 31.6 nM, the IC50 (second compound 3.16 µM) was < 31.6 nM and the IC50 (second compound 10 µM) was < 31.6 nM. It also gave a viability, T/C [1] of 79.9%, a viability, T/C (second compound 0.0316 µM, first compound 0.1 µM) of 71.2% and a viability, T/C [2] of 99.5%. The viability, T/C (second compound 0.0316 µM, first compound 1 µM) was 45.1%, the viability, T/C (second compound 0.0316 µM, first compound 3.16 µM) was 45.3% and the viability, T/C (second compound 0.0316 µM, first compound 10 µM) was 25.9%. It also gave a viability, T/C [3] of 62.1%, a viability, T/C (second compound 0.1 µM, first compound 0.1 µM) of 68.8% and a viability, T/C [4] of 61.3%. The viability, T/C (second compound 0.1 µM, first compound 1 µM) was 57.5%, the viability, T/C (second compound 0.1 µM, first compound 3.16 µM) was 47.8% and the viability, T/C (second compound 0.1 µM, first compound 10 µM) was 34.1%. The viability, T/C [5] was 46.1%, the viability, T/C (second compound 0.316 µM, first compound 0.1 µM) was 51.4% and the viability, T/C [6] was 46%. The viability, T/C (second compound 0.316 µM, first compound 1 µM) was 46.4%, the viability, T/C (second compound 0.316 µM, first compound 3.16 µM) was 52.4% and the viability, T/C (second compound 0.316 µM, first compound 10 µM) was 34.8%. It also gave a viability, T/C [7] of 35.1%, a viability, T/C (second compound 1 µM, first compound 0.1 µM) of 49.1% and a viability, T/C [8] of 38.1%. For the same compound, the viability, T/C (second compound 1 µM, first compound 1 µM) was 46%, the viability, T/C (second compound 1 µM, first compound 3.16 µM) was 43.4% and the viability, T/C (second compound 1 µM, first compound 10 µM) was 30.8%. For the same compound, the viability, T/C [9] was 36.3%, the viability, T/C (second compound 3.16 µM, first compound 0.1 µM) was 44.9% and the viability, T/C [10] was 41.2%. The viability, T/C (second compound 3.16 µM, first compound 1 µM) was 47.1%, the viability, T/C (second compound 3.16 µM, first compound 3.16 µM) was 39% and the viability, T/C (second compound 3.16 µM, first compound 10 µM) was 26%. It also gave a viability, T/C [11] of 30.4%, a viability, T/C (second compound 10 µM, first compound 0.1 µM) of 28.1% and a viability, T/C [12] of 32.3%. The viability, T/C (second compound 10 µM, first compound 1 µM) was 33%, the viability, T/C (second compound 10 µM, first compound 3.16 µM) was 10.4% and the viability, T/C (second compound 10 µM, first compound 10 µM) was 0.63%.
